# Measurements from patent US8350065B2, “5,6-dimethyl xanthone-4-acetic acid derivatives and method of preparing the same” (Grand Pharma (China) Co., Ltd., priority 2008, dated 2013).
# System: Clone No. 38 tumor
# Assay: Anti-tumor effect by short-term tissue assay in tumor-bearing mice (titled cytotoxic activity)
# Assay type: in vivo
# Conditions: mice with Clone No. 38 tumor; for OD (minimum dose of brine injection administered by peritoneal injection and causing activity): peritoneal injection in brine, dose raised in 1.5-fold steps to maximum tolerated dose; for Activity (necrosis of tumor cross section): peritoneal injection, short-term tissue assay
# Description: Cytotoxic activity of the compounds represented by formula (I) was measured by the following method.
# Clone No. 38 tumor was obtained from Mason Research Inc. and injected into experimental mice. […] Each dosage level was measured independently at least two times (commonly, three times). For each measurement, each group had five mice. The anti-tumor effect of the compounds was measured through short-term tissue assay.
# OD refers to the minimum dose (mg/Kg) of brine injection administered by peritoneal injection and causing activity; ++ refers to >90% of cross section is necrotic.
Structure (SMILES),OD (minimum dose of brine injection administered by peritoneal injection and causing activity),Activity (necrosis of tumor cross section)
"Cc1cc(C)c2c(=O)c3cccc(CC(=O)O)c3oc2c1C [NO 4, 5,6,8-trimethylxanthone-4-acetic acid]",30 mg/kg,++ (>90% of cross section is necrotic)
"Cc1cc(CC(=O)O)c2oc3c(C)c(C)ccc3c(=O)c2c1 [NO 2, 2,5,6-trimethyl xanthone-4-acetic acid]",25 mg/kg,++ (>90% of cross section is necrotic)
"Cc1ccc2c(=O)c3cccc(CC(=O)O)c3oc2c1C [NO 1, 5,6-dimethyl xanthone-4-acetic acid]",30 mg/kg,++ (>90% of cross section is necrotic)
"Cc1cc2c(=O)c3cccc(CC(=O)O)c3oc2c(C)c1C [NO 3, 5,6,7-trimethylxanthone-4-acetic acid]",30 mg/kg,++ (>90% of cross section is necrotic)
